Reference: ChEMBL document CHEMBL4840322, “Synthesis and biological evaluation of novel coumarin derivatives in rhabdoviral clearance” (Eur J Med Chem, 2021)
Active and inactive are the calls of the source. The rule behind the calls is not given here.

Tests used:
[1] = test system: Infectious hematopoietic necrosis virus; experiment: Inhibition of Infectious hematopoietic necrosis virus glycoprotein G assessed as antiviral activity at 25 uM measured by RT-qPCR method relative to control
[2] = test system: Infectious hematopoietic necrosis virus; experiment: Antiviral activity against Infectious hematopoietic necrosis virus infected in Fathead minnow EPC cells assessed as inhibition of G protein expression measured after 72 hrs by RT-qPCR method; assay type: functional, organism-based
[3] = test system: Infectious hematopoietic necrosis virus; experiment: Antiviral activity against Infectious hematopoietic necrosis virus infected in Fathead minnow EPC cells at 25 uM preincubated for 1 to 4 hrs followed by compound washout and infected to EPC cells and measured after 72 hrs by RT-qPCR assay; assay type: functional, organism-based; settings: time 1-4 hrs
[4] = test system: Infectious hematopoietic necrosis virus; experiment: Antiviral activity against Infectious hematopoietic necrosis virus infected in Fathead minnow EPC cells assessed as decrease in virus-induced apoptosis by measuring necrotic cells measured after 72 hrs by Annexin V/PI staining based flowcytometry method (reference value: 0.29%); assay type: functional; design: scale not given: the % may be the effect or the level left
[5] = test system: Infectious hematopoietic necrosis virus; experiment: Antiviral activity against Infectious hematopoietic necrosis virus infected in Fathead minnow EPC cells assessed as inhibition of virus-cell recognition at 25 uM measured after 30 mins by RT-qPCR method; assay type: functional, organism-based
[6] = test system: Infectious hematopoietic necrosis virus; experiment: Antiviral activity against Infectious hematopoietic necrosis virus infected in Fathead minnow EPC cells assessed as decrease in virus-induced apoptosis by measuring appearance of normal sized nuclei in cells at 100 uM measured after 72 hrs by Flowcytometry assay; assay type: functional, organism-based
[7] = test system: Infectious hematopoietic necrosis virus; experiment: Antiviral activity against Infectious hematopoietic necrosis virus infected in Rainbow trout fish assessed as decrease of viral proliferation in fish kidney ip measured after 4 days; assay type: functional, organism-based; settings: time 4.0 day
[8] = test system: Infectious hematopoietic necrosis virus; experiment: Antiviral activity against Infectious hematopoietic necrosis virus infected in Fathead minnow EPC cells assessed as decrease in virus-induced apoptosis by measuring early apoptotic cells measured after 72 hrs by Annexin V/PI staining based flowcytometry method (reference value: 3.8%); assay type: functional; design: scale not given: the % may be the effect or the level left
[9] = test system: Sprivivirus cyprinus; experiment: Antiviral activity against spring viremia of carp virus infected in Fat head minnow EPC cells assessed as inhibition of N protein gene expression by RT-qPCR method relative to control; assay type: functional, organism-based
[10] = test system: Infectious hematopoietic necrosis virus; experiment: Antiviral activity against Infectious hematopoietic necrosis virus infected in Rainbow trout fish assessed as decrease of mortality rate ip measured after 4 days; assay type: functional, organism-based; settings: time 4.0 day
[11] = test system: Infectious hematopoietic necrosis virus; experiment: Antiviral activity against Infectious hematopoietic necrosis virus infected in Fathead minnow EPC cells assessed as inhibition of nucleoprotein gene expression at 0.1 to 100 uM measured after 72 hrs by RT-qPCR method relative to control; assay type: functional; design: scale not given: the % may be the effect or the level left; settings: dose 0.1-100 µM
[12] = test system: Micropterus salmoides rhabdovirus; experiment: Antiviral activity against micropterus salmoides rhabdo-virus infected in Fat head minnow EPC cells assessed as inhibition of N protein gene expression by RT-qPCR method relative to control; assay type: functional, organism-based
[13] = Cytotoxicity against Fathead minnow EPC cells at 25 uM; assay type: cell-based; settings: pimephales promelas
[14] = test system: Sprivivirus cyprinus; experiment: Antiviral activity against spring viremia of carp virus infected in Fat head minnow EPC cells assessed as inhibition of N protein gene expression at 0.1 to 100 uM by RT-qPCR method relative to control; assay type: functional; design: scale not given: the % may be the effect or the level left; settings: dose 0.1-100 µM
[15] = Induction of apoptosis in Fathead minnow EPC cells assessed as viable cells measured after 72 hrs by Annexin V/PI staining based flowcytometry method (reference value: 94%); assay type: functional, Pimephales promelas
[16] = Cytotoxicity against Grass carp GCO cells at 25 uM; assay type: cell-based; settings: ctenopharyngodon idellus
[17] = test system: Infectious hematopoietic necrosis virus; experiment: Antiviral activity against Infectious hematopoietic necrosis virus infected in Fathead minnow EPC cells assessed as decrease in virus-induced apoptosis by measuring caspase-3 activity at 25 uM measured after 72 hrs by Caspase activity assay relative to control; assay type: functional; design: scale not given: the % may be the effect or the level left
[18] = Induction of apoptosis in Fathead minnow EPC cells assessed as late apoptotic cells measured after 72 hrs by Annexin V/PI staining based flowcytometry method (reference value: 1.95%); assay type: functional, Pimephales promelas
[19] = test system: Infectious hematopoietic necrosis virus; experiment: Antiviral activity against Infectious hematopoietic necrosis virus infected in Fathead minnow EPC cells assessed as inhibition of polymerase protein gene expression at 0.1 to 100 uM measured after 72 hrs by RT-qPCR method relative to control; assay type: functional; design: scale not given: the % may be the effect or the level left; settings: dose 0.1-100 µM
[20] = test system: Infectious hematopoietic necrosis virus; experiment: Antiviral activity against Infectious hematopoietic necrosis virus infected in Fathead minnow EPC cells assessed as decrease in virus-induced apoptosis by measuring formation of few apoptotic bodies in cells at 100 uM measured after 72 hrs by Flowcytometry assay; assay type: functional, organism-based
[21] = test system: Infectious hematopoietic necrosis virus; experiment: Antiviral activity against Infectious hematopoietic necrosis virus infected in Rainbow trout fish assessed as decrease of viral proliferation in fish spleen ip measured after 4 days; assay type: functional, organism-based; settings: time 4.0 day
[22] = Induction of apoptosis in Fathead minnow EPC cells assessed as necrotic cells measured after 72 hrs by Annexin V/PI staining based flowcytometry method (reference value: 0.29%); assay type: functional, Pimephales promelas
[23] = test system: Infectious hematopoietic necrosis virus; experiment: Antiviral activity against Infectious hematopoietic necrosis virus infected in Fathead minnow EPC cells assessed as decrease in virus-induced apoptosis by measuring caspase-9 activity at 25 uM measured after 72 hrs by Caspase activity assay relative to control; assay type: functional; design: scale not given: the % may be the effect or the level left
[24] = test system: Infectious hematopoietic necrosis virus; experiment: Antiviral activity against Infectious hematopoietic necrosis virus infected in Fathead minnow EPC cells assessed as decrease in virus-induced apoptosis by measuring changes in cell morphology at 10 uM measured by ultrastructural analysis; assay type: functional, organism-based
[25] = test system: Infectious hematopoietic necrosis virus; experiment: Antiviral activity against Infectious hematopoietic necrosis virus infected in Fathead minnow EPC cells assessed as inhibition of phospho protein gene expression at 0.1 to 100 uM measured after 72 hrs by RT-qPCR method relative to control; assay type: functional; design: scale not given: the % may be the effect or the level left; settings: dose 0.1-100 µM
[26] = test system: Infectious hematopoietic necrosis virus; experiment: Antiviral activity against Infectious hematopoietic necrosis virus infected in Fathead minnow EPC cells assessed as decrease in virus-induced apoptosis by measuring viable cells measured after 72 hrs by Annexin V/PI staining based flowcytometry method (reference value: 94%); assay type: functional
[27] = Induction of apoptosis in Fathead minnow EPC cells assessed as early apoptotic cells measured after 72 hrs by Annexin V/PI staining based flowcytometry method (reference value: 3.8%); assay type: functional, Pimephales promelas
[28] = test system: Infectious hematopoietic necrosis virus; experiment: Antiviral activity against Infectious hematopoietic necrosis virus infected in Fathead minnow EPC cells assessed as decrease in virus-induced apoptosis by measuring caspase-8 activity at 25 uM measured after 72 hrs by Caspase activity assay relative to control; assay type: functional; design: scale not given: the % may be the effect or the level left
[29] = test system: Infectious hematopoietic necrosis virus; experiment: Antiviral activity against Infectious hematopoietic necrosis virus infected in Rainbow trout fish assessed as decrease of viral proliferation in fish brain ip measured after 4 days; assay type: functional, organism-based; settings: time 4.0 day
[30] = test system: Infectious hematopoietic necrosis virus; experiment: Antiviral activity against Infectious hematopoietic necrosis virus infected in Fathead minnow EPC cells assessed as inhibition of matrix protein gene expression at 0.1 to 100 uM measured after 72 hrs by RT-qPCR method relative to control; assay type: functional; design: scale not given: the % may be the effect or the level left; settings: dose 0.1-100 µM
[31] = test system: Sprivivirus cyprinus; experiment: Antiviral activity against spring viremia of carp virus infected in Fathead minnow EPC cells assessed as reduction of viral titre value measured after 48 to 96 hrs; assay type: functional, organism-based; settings: time 48-96 hrs
[32] = test system: Micropterus salmoides rhabdovirus; experiment: Antiviral activity against micropterus salmoides rhabdo-virus infected in Grass carp GCO cells assessed as reduction of viral titre value measured after 48 to 96 hrs; assay type: functional, organism-based; settings: time 48-96 hrs
[33] = test system: Infectious hematopoietic necrosis virus; experiment: Antiviral activity against Infectious hematopoietic necrosis virus infected in Fathead minnow EPC cells assessed as decrease in virus-induced apoptosis by measuring late apoptotic cells measured after 72 hrs by Annexin V/PI staining based flowcytometry method (reference value: 1.95%); assay type: functional; design: scale not given: the % may be the effect or the level left
[34] = test system: Infectious hematopoietic necrosis virus; experiment: Antiviral activity against Infectious hematopoietic necrosis virus infected in Fathead minnow EPC cells assessed as reduction of virus titre values at 0.25 to 25 uM measured after 72 to 96 hrs; assay type: functional, organism-based; settings: dose 0.25-25 µM, time 72-96 hrs
[35] = test system: Micropterus salmoides rhabdovirus; experiment: Antiviral activity against micropterus salmoides rhabd-ovirus infected in Fat head minnow EPC cells assessed as inhibition of N protein gene expression at 0.1 to 100 uM by RT-qPCR method relative to control; assay type: functional; design: scale not given: the % may be the effect or the level left; settings: dose 0.1-100 µM
[36] = test system: Infectious hematopoietic necrosis virus; experiment: Antiviral activity against Infectious hematopoietic necrosis virus infected in Fathead minnow EPC cells assessed as suppression of virus-induced cytopathic effect at 100 uM; assay type: functional, organism-based

Molecule `Cc1cc(=O)oc2cc(OCCCCCCn3cncn3)ccc12` has an inhibition [1] of 25.2%.
`COc1cc(=O)oc2ccccc12` showed an inhibition [1] of 19.5%.
With `COc1ccc2ccc(=O)oc2c1` the inhibition [1] was 10.8%.
`Cc1cc(=O)oc2cc(OCCCCCCBr)ccc12` showed an inhibition [1] of -2.34%.
With `Nc1ccccc1SCCCCCCOc1ccc2ccc(=O)oc2c1` the inhibition [1] was 49.3%.
`O=c1ccc2ccc(OCCBr)cc2o1` gave an inhibition [1] of 0.13%.
`O=c1ccc2ccc(OCCCn3cnc4ccccc43)cc2o1` gave an inhibition [1] of 27.2%.
Work on `O=c1ccc2ccc(OCCCCCCn3cncn3)cc2o1` yielded an inhibition [1] of 39.2%.
Molecule `Cc1cn(CCCCCCOc2ccc3c(C)cc(=O)oc3c2)cn1` has an inhibition [1] of 65.1%.
Molecule `O=c1ccc2ccc(OCCCCCCCCn3cnc4ccccc43)cc2o1` has an inhibition [1] of 46.1%.
For `C=C(C)COc1cc(=O)oc2ccccc12`, the inhibition [1] was 9.47%.
Work on `CCCOc1ccc2ccc(=O)oc2c1` yielded an inhibition [1] of 5.73%.
`O=c1ccc2ccc(OCCCCCCN3CCCCC3)cc2o1` gave an inhibition [1] of 5.32%.
`Cc1cc(=O)oc2cc(OCCCCCCn3ccnc3)ccc12` gave an inhibition [1] of 82.1% and an IC50 [2] of 7.63 µM.
With `C=CCOc1cc(=O)oc2ccccc12` the inhibition [1] was 2.46%.
With `O=c1ccc2ccc(OCCCBr)cc2o1` the inhibition [1] was -8.24%.
`CCCCOc1ccc2c(C)cc(=O)oc2c1` showed an inhibition [1] of -4.37%.
Molecule `O=c1ccc2ccc(OCCCCBr)cc2o1` has an inhibition [1] of 2.59%.
Work on `Cc1cc(=O)oc2cc(OCCCCCCn3ccnc3C)ccc12` yielded an inhibition [1] of 89.5% and an IC50 [2] of 6.34 µM.
Molecule `CCCCOc1ccc2ccc(=O)oc2c1` has an inhibition [1] of 22%.
Work on `C=C(C)COc1ccc2c(C)cc(=O)oc2c1` yielded an inhibition [1] of 9.37%.
Molecule `O=c1ccc2ccc(OCCCCn3cnc4ccccc43)cc2o1` has an inhibition [1] of 35.1%.
With `C=C(C)COc1ccc2ccc(=O)oc2c1` the inhibition [1] was 14%.
With `CCCCOc1cc(=O)oc2ccccc12` the inhibition [1] was 14.5%.
Work on `Cc1cc(=O)oc2cc(OCCCCCCn3cnc4ccccc43)ccc12` yielded an inhibition [1] of 94.1% and an IC50 [2] of 4.76 µM.
With `O=c1ccc2ccc(OCCn3cnc4ccccc43)cc2o1` the inhibition [1] was 5.58%.
For `O=c1ccc2ccc(OCCCCCCn3cnc4ccccc43)cc2o1`, the Activity [3] was “inactive”, the Activity [4] was 0.26% and the inhibition [1] was 99.2%. For the same molecule, the Activity [5] was “inactive”, the Activity [6] was “Active” and the Activity [7] was “Active”. The Activity [8] was 3.47%, the IC50 [9] was 1.68 µM and the Activity [10] was “Active”. The Activity [11] was >95%, the IC50 [12] was 2.12 µM and the Activity [13] was “Non-Toxic”. The Activity [14] was 97.86%, the Activity [15] was 95.1% and the Activity [16] was “Non-Toxic”. For the same molecule, the Activity [17] was 383%, the Activity [18] was 2.2% and the Activity [19] was >95%. For the same molecule, the Activity [20] was “Active”, the Activity [21] was “Active” and the Activity [22] was 0.4%. For the same molecule, the Activity [23] was 50%, the Activity [24] was “Active” and the Activity [25] was >95%. The IC50 [2] was 2.96 µM, the Activity [26] was 93.7% and the Activity [27] was 2.35%. For the same molecule, the Activity [28] was 98%, the Activity [29] was “Active” and the Activity [30] was >95%. The Activity [31] was “Active”, the Activity [32] was “Active” and the Activity [33] was 2.55%. The Activity [34] was “Active”, the Activity [35] was 99.08% and the Activity [36] was “Active”.
`CCCOc1ccc2c(C)cc(=O)oc2c1` gave an inhibition [1] of -1.75%.
Work on `C=CCOc1ccc2ccc(=O)oc2c1` yielded an inhibition [1] of -5.86%.
`O=c1ccc2ccc(OCCCCCCSc3cccc(O)c3)cc2o1` gave an inhibition [1] of 13.8%.
For `NC(=O)c1ncn([C@@H]2O[C@H](CO)[C@@H](O)[C@H]2O)n1`, the inhibition [1] was 99.1%.
In the case of `CCCOc1cc(=O)oc2ccccc12`, the inhibition [1] is reported as 9.48%.
With `COc1ccc2c(C)cc(=O)oc2c1` the inhibition [1] was 2.13%.
